Substitutions are numbered along the chain they refer to. Structures can show the parent of a compound that is named as a salt.
Assays:
MRGPRX2 N62S = molecular target: T1, MRGPRX2 N62S (Homo sapiens, UniProt Q96LB1, N62S); experiment: Calcium response dose-response curves in HEK293-Gα15 cells expressing MRGPRX2 N62S; format: cell-based; conditions: P=0.013, unpaired t-test
T1 construct: expressed in transfected cells
T1 sequence (Q96LB1 1-330 N62S): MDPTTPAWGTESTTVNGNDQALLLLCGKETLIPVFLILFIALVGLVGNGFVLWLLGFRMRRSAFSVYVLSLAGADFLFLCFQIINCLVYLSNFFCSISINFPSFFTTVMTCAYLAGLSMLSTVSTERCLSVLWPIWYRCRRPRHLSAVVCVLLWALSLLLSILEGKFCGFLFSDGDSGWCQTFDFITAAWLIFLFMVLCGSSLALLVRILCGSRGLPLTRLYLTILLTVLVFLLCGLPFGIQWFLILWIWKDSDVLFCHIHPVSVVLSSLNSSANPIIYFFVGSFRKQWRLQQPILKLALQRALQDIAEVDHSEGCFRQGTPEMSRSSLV

[1] = molecular target: T2, MRGPRX2-MUT (MRGPRX2 N62S mutation) (Homo sapiens, UniProt Q96LB1, N62S); experiment: Primary HTS, Ca2+ mobilization (fluorescence ratio, B-score) in HEK293-Gα15 cells stably expressing the MRGPRX2 N62S mutation; format: cell-based; conditions: Supplementary Table 2
T2 construct: expressed in transfected cells
T2 sequence (Q96LB1 1-330 N62S): T1 sequence (Q96LB1 1-330 N62S)

[2] = molecular target: T3, MRGPRX2-WT (wild-type MRGPRX2 receptor) (Homo sapiens, UniProt Q96LB1); experiment: Primary HTS, Ca2+ mobilization (fluorescence ratio, B-score) in HEK293-Gα15 cells stably expressing wild-type MRGPRX2; format: cell-based
T3 construct: expressed in transfected cells
T3 sequence (Q96LB1 1-330): T1 sequence (Q96LB1 1-330 N62S) with S62N

MRGPRX2-WT = molecular target: T4, MRGPRX2-WT (Homo sapiens, UniProt Q96LB1); experiment: Calcium response dose-response curves in HEK293-Gα15 cells expressing MRGPRX2-WT; format: cell-based
T4 construct: expressed in transfected cells
T4 sequence (Q96LB1 1-330): T1 sequence (Q96LB1 1-330 N62S) with S62N

MRGPRX2 = conditions: weak agonist; cited from earlier work

COc1cccc2c1C(=O)c1c(O)c3c(c(O)c1C2=O)C[C@@](O)(C(C)=O)C[C@@H]3O[C@H]1C[C@H](N)[C@H](O)[C@H](C)O1 [Daunorubicin Hydrochloride]
EC50 values comparing MRGPRX2-MUT to MRGPRX2-WT cells (MRGPRX2 N62S): demonstrated the LOF property
B-scores (MUT) ([1]; 10 μM compound, MRGPRX2-MUT (N62S) cells): 15.19
Change of B-scores (%) ([1]; MRGPRX2-MUT versus MRGPRX2-WT cells, 10 μM): 414.49%
B-scores (WT) ([2]; 10 μM compound, Supplementary Table 2): 2.95

COc1cccc2c1C(=O)c1c(O)c3c(c(O)c1C2=O)C[C@@](O)(C(=O)CO)C[C@@H]3O[C@H]1C[C@H](N)[C@H](O)[C@H](C)O1 [Doxorubicin Hydrochloride]
EC50 (MRGPRX2-WT): 0.131 µM

CN[C@H](CC(C)C)C(=O)N[C@H]1C(=O)N[C@@H](CC(N)=O)C(=O)N[C@H]2C(=O)N[C@H]3C(=O)N[C@H](C(=O)N[C@H](C(=O)O)c4cc(O)cc(O)c4-c4cc3ccc4O)[C@H](O)c3ccc(c(Cl)c3)Oc3cc2cc(c3O[C@@H]2O[C@H](CO)[C@@H](O)[C@H](O)[C@H]2O[C@H]2C[C@](C)(N)[C@H](O)[C@H](C)O2)Oc2ccc(cc2Cl)[C@H]1O [vancomycin]
B-score value ([2]; 10 μM): 16.36
calculated EC50 (MRGPRX2): 60 mg/L

From paper PMC9635925, “Biological screening of a unique drug library targeting MRGPRX2” (Frontiers in Immunology, 2022)
